# Results reported in patent US20240180485A1, “METHOD AND DEVICE FOR INDUCING HYPOMETABOLIC STATE IN SUBJECT WITH DISEASE” (UNIVERSITY OF TSUKUBA, priority 2021, published 2024).
# Experiments:
# [1] = tested on: Qrfp-iCre; Rosa26^dreaddm3 mice; test: Thermographic surface body temperature and motor activity after CNO in Qrfp-iCre; Rosa26^dreaddm3 mice; format: in vivo, mouse
# Description: For thermographic analysis, the mice were placed in an experimental cage (25×15×10 cm) and monitored by using an infrared thermal imaging camera (InfReC R500 EX; NIPPON AVIONICS) placed 30 cm above the cage floor. In order to clearly detect the surface temperature, the dorsal hair was removed by using hair clippers one day before the start of the experiment. Thermograms of DREADD and optogenetic experiments were collected at 0.5 Hz and 1 Hz, respectively, and analyzed by using the InfReC Analyzer NS9500 Professional software (NIPPON AVIONICS). The highest temperature in one frame was used as TS of the animal (FIG. 1d).
# The pyroglutamylated RFamide peptide (QRFP), a hypothalamic neuropeptide, was originally discovered through a bioinformatics approach aimed at the discovery of a new RFamide peptide^9,10. The Qrfp peptide was also identified and purified from the rat brain as an endogenous ligand for the orphan G-protein-coupled receptor hGPR103^11. The prepro-Qrfp mRNA is localized only in the hypothalamus and is distributed in the periventricular nucleus (Pe), the lateral hypothalamus (LHA), and the tuber cinereum (TC) 11. Orfp has previously been implicated in food intake, sympathetic regulation, and anxiety^11,12. The inventors prepared mice (Qrfp-iCre mice) having codon-improved Cre recombinase (iCre) knocked-in into the Qrfp gene. In order to obtain mice (Qrfp-iCre; Rosa26^dreaddm3 mice) in which hM3Dq-mCherry was expressed only in iCre-expressing neurons, the inventors crossbred […] with Rosa26^dreadm3 mice having an upstream floxed transcription arrest element inserted at the Rosa26 gene locus. […] The decrease in Ts started about 5 minutes after CNO administration and lasted for approximately 12 hours. After that, the mice spontaneously recovered from the hypothermic state without external rewarming.
# [2] = tested on: AVPe/MPA including Q-neurons; conditions: AAV10-CaMKIIα-hM3Dq-mCherry injected into AVPe/MPA; cited from earlier work
# [3] = tested on: hM3Dq-mCherry-expressing neurons; test: Current-clamp recording of hypothalamus slices with bath-applied CNO; format: cell-based, mouse; conditions: bath application; CNO 1 μM; 30° C.
# Method: The mice were decapitated under deep anesthesia using isoflurane (Pfizer). The brains were extracted and cooled in an ice-cold cutting solution containing the following (mM): 125 mM choline chloride, 25 mM NaHCO3, 10 mM D(+)-glucose, 7 mM MgCl2, 2.5 mM KCl, 1.25 mM NaH2PO4, and 0.5 mM CaCl2 bubbled with O2 (95%) and CO2 (5%). Horizontal brain slices (250 μm in thickness) including the hypothalamus were prepared by using a vibratome (VT1200S, Leica) and were maintained at room temperature for 1 hour in artificial CSF (ACSF) containing the following (mM): 125 mM NaCl, 26 mM NaHCO3, 10 mM D(+)-glucose, 2.5 mM KCl, 2 mM CaCl2), and 1 mM MgSO4 bubbled with O2 (95%) and CO2 (5%). The electrodes (5 to 8 MΩ) were filled with an internal solution containing the following (mM): 125 mM K-gluconate, 10 mM HEPES, 10 mM phosphocreatine, 0.05 mM tolbutamide, 4 mM NaCl, 4 mM ATP, 2 mM MgCl2, 0.4 mM GTP, and 0.2 mM EGTA, pH 7.3, adjusted with KOH). Firing of hM3Dq-mCherry-expressing neurons was recorded in current-clamp mode at a temperature of 30° C. CNO (1 μM) was bath-applied, and the effect was investigated. The membrane potential and data acquisition were controlled by using a combination of a MultiClamp 700B amplifier, a Digidata 1440A A/D converter, and Clampex 10.3 software (Molecular Devices). […]
# [4] = tested on: Q-hM3D mice; conditions: mouse, in vivo
# Description: In order to evaluate the thermoregulatory system under QIH and normal conditions, the heat loss and the heat production of the animals were described by a hierarchical multilayer model (FIGS. 3c to 3k, code folder QIH_GTRH). Three parameters of G, TR, and H under two metabolic conditions, that is, normal and QIH, were estimated from a metabolically stable state of the animals at various TAs. […] In brief, a linear model consisting of the controllable parameter TA and the observable parameters TB and VO2 was fitted to the experimental results for both TB and VO2 by using TA as a predictor having normally distributed noise. Next, G, TR, and H were estimated by using the posterior distributions of the slope and the intercept coefficient of each model. In this analysis, the prior probability density function of the standard deviation of noise was a standard half-normal distribution, and the other parameters used a positive region of a uniform distribution except for the intercept coefficient of TB, which used a uniform distribution due to negative values.
# In order to evaluate this, feature analysis of the thermoregulatory system of mice during QIH was carried out. […] Q-hM3D mice were prepared, and TB and VO2 were recorded during QIH at various TAs (8, 12, 16, 20, 24, 28, and 32° C.) (FIG. 3a). […]
# [5] = tested on: Q-hM3D mice; test: Body temperature, oxygen consumption, heart rate and respiration after CNO IP in Q-hM3D mice; format: in vivo, mouse
# [6] = tested on: neurons in AVPe, MPA, and Pe; test: Fos immunostaining after CNO IP in Q-hM3D mice; format: in vivo, mouse; conditions: 90 minutes after CNO IP
# Method: Each mouse was deeply anesthetized with isoflurane, transcardially perfused with 10% sucrose in water, and subsequently perfused with ice-cooled 4% paraformaldehyde (4% PFA) in a 0.1 M phosphate buffer having a pH of 7.4, and the brain was removed. The brain was left in 4% PFA overnight at 4° ° C., then fixed, incubated overnight at 4° C. in 30% sucrose in a 0.1 M phosphate buffered saline (PBS) having a pH of 7.4, immersed in a Tissuue-Tek O.C.T. compound (Sakura) in a cryomold, and frozen at −80° C. until sectioned. The brain was sliced coronally by using a cryostat (CM1860, Leica) every 50 μm into four equal series, collected in a 6-well plate filled with ice-cooled PBS, and washed three times with PBS at room temperature (RT). Unless otherwise specified, the following incubation step was carried out with gently shaking on an orbital shaker. Brain sections were incubated for 1 hour at room temperature in 1% Triton X-100 in PBS. […]
# The primary antibodies used in the present study were rabbit anti-cFos (1:4000, ABE457, Millipore), goat anti-mCherry (1:15000, AB0040-200, SICGEN), rat anti-GFP (1:5000, 04404-84, NACALAI TESQUE), mouse anti-TH (1:1000, sc-25269, Santa Cruz Biotechnology), mouse anti-orexin A (1:200, sc-80263, Santa Cruz Biotechnology), and rabbit anti-MCH (1:2000, M8440, SIGMA). […] Brain regions were determined by using mouse brain maps from Paxinos and Franklin^36.
# [7] = tested on: wild-type mice; test: Metabolic state induced by IP CHA in wild-type mice
# Method: The adenosinea receptor agonist CHA (N6-cyclohexyladenosine, Sigma-Aldrich, C9901) was dissolved in physiological saline at a concentration of 250 μg/mL, and the resulting solution was intraperitoneally administered to each mouse at a dose of 2.5 mg/kg.
# In addition, the metabolic state induced by systemic delivery of the adenosine A1AR agonist (6)N-cyclohexyladenosine (CHA), which is used to induce a hypothermic state, was also investigated^19.
# [8] = centrally administered; cited from earlier work
# [9] = surface body temperature, thermographic camera
compound,measurement,setting,value
"C[N+]1([O-])CCN(C2=Nc3cc(Cl)ccc3Nc3ccccc32)CC1 [CNO, clozapine N-oxide]",hypothermia accompanying the CNO-induced immobile state,[1]; FIG. 1b,remarkable and sustained hypothermia
same,start of severe and sustained immobile state after injection,[1]; intraperitoneal (IP) injection,about 30 minutes
same,duration of decrease in Ts,[1]; [9],approximately 12 hours
same,start of decrease in Ts after administration,[1]; [9],about 5 minutes
same,induction of QIH in rats,[2],induced QIH with hypothermia and hypometabolism
same,excitation of mCherry-positive neurons,[3],strongly excited
same,"difference between the medians of TR, normal vs QIH",[4],8.41 °C
same,reduction in the median of H in QIH from the normal state,[4],95.3%
same,induction of QIH,"[5]; CNO injection, before in situ hybridization",effectively induced QIH
same,QIH after repeated injections in the same mice,[5]; FIG. 1h,reproducible
same,duration of very low TB state (below 30° C.),"[5]; IP injection, FIG. 1d",≥ 48 h
same,duration of QIH with a TB of less than 30° C.,"[5]; TA=20° C., one dose 1 mg/kg",≥ 48 h
same,time for VO2 to fully return to normal,"[5]; TA=20° C., one dose 1 mg/kg",about 1 week
same,hypothermia compared with Qrfp-iCre; Rosa26^dreaddm3 mice,"[5]; mouse, in vivo, ip","deeper, longer-lasting hypothermia"
same,O2 consumption rate (VO2) in the CNO-induced hypothermic state,"[5]; respiratory gas analysis, FIG. 1g",remarkable decrease
same,action of CNO on TB with TeTxLC co-expression,[5]; simultaneous injection of AAV2/9-hSyn-DIO-TeTxLC-eYFP and AAV10-EF1α-DIO-hM3Dq-mCherry,completely eliminated
same,VO2,"[5]; two hours after CNO injection, 3.60 before",1.17 mL/g/h
same,respiratory rate,"[5]; two hours after CNO injection, 333 before, tidal volume below detection limit",undetectable
same,heart rate,"[5]; two hours after CNO injection, 758 two hours before, average of n=3",215 beats/min
same,in vivo excitation of neurons (anti-Fos and anti-mCherry),[6],numerous mCherry and Fos double-positive neurons
"OC[C@H]1O[C@@H](n2cnc3c(NC4CCCCC4)ncnc32)[C@H](O)[C@@H]1O [CHA, N6-cyclohexyladenosine]",TB and VO2 when TA was set to 12° C.,"[7]; IP 2.5 mg/kg, CHA-induced hypothermia",further decreased
same,"reaction to low TA (increase in VO2, posture, shivering)","[7]; IP 2.5 mg/kg, TA 12° C.",did not react to a low TA
same,induction of hypothermic/hypometabolic state,[7]; IP injection 2.5 mg/kg,effectively induced a hypothermic/hypometabolic state
"pyroglutamylated RFamide peptide (QDEGSEATGFLPAAGEKTSGPLGNLAEELNGYSRKKGGFSFRF; QRF-amide; UniProt P83859 91-133, looked up) [Qrfp, hypothalamic neuropeptide, endogenous ligand for the GPR103 receptor]","effect on sympathetic nerve outflow, heart rate and blood pressure",[8],increases sympathetic nerve outflow and increases the heart rate and the blood pressure
